Reference: US20240043386A1, “Modulators of the Cystic Fibrosis Transmembrane Conductance Regulator Protein and Methods of Use” (AbbVie Global Enterprises Ltd., priority 2021, published 2024)
Like-named read-outs stand apart in the source and are kept apart here.

Experiments:
F508del/F508del CFTR = molecular target: T1, F508del/F508del CFTR (Homo sapiens, UniProt P13569, DEL508-508); test: Trans-Epithelial Current Clamp (TECC) assay using primary human bronchial epithelial cells; assay type: cell-based; details: for Emax (% Dual): maximum percent activity relative to positive control (co-corrector 0.15 μM + potentiator 0.45 μM = 100%), primary hBE cells F508del/F508del; for EC50: primary hBE cells homozygous F508del/F508del, test C2 corrector with co-corrector and potentiator, 18-24 hours at 37° C., equivalent CFTR current (IEQ)/AUC
T1 construct: cells isolated from CF patients with the homozygous mutation; endogenous in cells; host or cells: primary human bronchial epithelial (hBE) cells from CF patients homozygous for F508del
T1 sequence (P13569 with tags, fused parts or gaps DEL508-508): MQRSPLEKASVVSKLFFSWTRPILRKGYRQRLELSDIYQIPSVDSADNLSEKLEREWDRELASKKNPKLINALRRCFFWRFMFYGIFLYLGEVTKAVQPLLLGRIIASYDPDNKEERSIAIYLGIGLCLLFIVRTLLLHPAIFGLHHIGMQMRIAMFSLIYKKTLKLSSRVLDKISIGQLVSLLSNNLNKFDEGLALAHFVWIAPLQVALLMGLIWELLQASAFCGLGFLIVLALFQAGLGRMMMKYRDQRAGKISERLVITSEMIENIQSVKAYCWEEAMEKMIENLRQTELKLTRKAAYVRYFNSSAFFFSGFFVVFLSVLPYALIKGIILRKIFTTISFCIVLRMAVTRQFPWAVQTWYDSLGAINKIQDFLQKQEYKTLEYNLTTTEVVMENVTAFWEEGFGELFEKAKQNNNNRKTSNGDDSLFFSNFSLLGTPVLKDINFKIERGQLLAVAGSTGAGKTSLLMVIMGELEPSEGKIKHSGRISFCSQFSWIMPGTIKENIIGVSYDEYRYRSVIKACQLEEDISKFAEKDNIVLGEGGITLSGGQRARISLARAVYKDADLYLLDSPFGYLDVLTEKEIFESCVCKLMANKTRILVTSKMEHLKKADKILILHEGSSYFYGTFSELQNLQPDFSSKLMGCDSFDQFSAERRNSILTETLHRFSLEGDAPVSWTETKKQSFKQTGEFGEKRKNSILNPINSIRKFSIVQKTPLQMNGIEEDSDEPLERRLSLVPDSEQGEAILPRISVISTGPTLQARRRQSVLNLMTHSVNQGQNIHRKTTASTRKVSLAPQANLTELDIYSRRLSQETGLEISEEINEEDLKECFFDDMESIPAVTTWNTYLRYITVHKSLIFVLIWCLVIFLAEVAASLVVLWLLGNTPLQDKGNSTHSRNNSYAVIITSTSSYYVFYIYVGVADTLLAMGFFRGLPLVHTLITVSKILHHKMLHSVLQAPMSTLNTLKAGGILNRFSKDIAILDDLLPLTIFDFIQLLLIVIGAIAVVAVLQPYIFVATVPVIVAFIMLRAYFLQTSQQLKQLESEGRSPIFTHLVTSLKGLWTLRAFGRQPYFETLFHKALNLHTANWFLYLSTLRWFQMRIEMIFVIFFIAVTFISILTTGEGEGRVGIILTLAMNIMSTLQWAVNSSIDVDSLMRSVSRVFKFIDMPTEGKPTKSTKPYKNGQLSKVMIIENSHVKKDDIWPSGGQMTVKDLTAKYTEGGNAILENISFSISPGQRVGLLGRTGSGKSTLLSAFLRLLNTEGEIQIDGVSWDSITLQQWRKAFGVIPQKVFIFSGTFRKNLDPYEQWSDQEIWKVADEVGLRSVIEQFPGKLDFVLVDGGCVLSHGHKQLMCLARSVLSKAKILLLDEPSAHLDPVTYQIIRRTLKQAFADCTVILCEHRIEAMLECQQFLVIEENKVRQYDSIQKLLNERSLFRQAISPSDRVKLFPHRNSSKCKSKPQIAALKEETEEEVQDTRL
Outline: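 F508del/F508del primary hBE cells grown 35 days at air-liquid interface were treated basolaterally with C2 correctors plus fixed co-corrector and potentiator for 18-24 h at 37° C. TECC-24 current clamp at 36.5° C in HEPES-buffered F-12 Coon's, pH 7.4; equivalent current IEQ=VT/RT, plus AUC between forskolin peak and bumetanide.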

F508delCFTR = molecular target: T2, F508delCFTR (Homo sapiens, UniProt P13569, DEL508-508); test: Cell Surface Expression-Horse Radish Peroxidase (CSE-HRP) assay in CFBE41o-F508delCFTR-HRP cells; assay type: cell-based; details: for EC50: CFBE41o-F508delCFTR-HRP cells, 18-24 hours at 33° C., luminescence; for Maximum % activity (with co-corrector) / Maximum % activity (without co-corrector): normalized to on-plate positive control corrector (2 μM)
T2 construct: expressed in transfected cells; host or cells: CFBE41o- human lung-derived epithelial cell line, doxycycline-inducible expression
T2 sequence (P13569 with tags, fused parts or gaps DEL508-508): as above
Outline: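 CFBE41o- cells expressing F508delCFTR with HRP in the fourth exofacial loop were doxycycline-induced (0.5 μg/mL) for 68–72 h, then exposed to correctors for 18–24 h at 33 °C, with or without 2 μM co-corrector. Surface HRP was read by luminol luminescence, and % activity was normalized to the on-plate positive control; EC50 came from a variable-slope sigmoidal fit (8 points, 3-fold dilution, 20 or 30 μM top).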

[1] = with co-corrector (2 μM), read-out: EC50 (with co-corrector)
[2] = without co-corrector, read-out: EC50 (without co-corrector)

Row | Compound | Emax (% Dual) (F508del/F508del CFTR) | EC50 (F508del/F508del CFTR) [nM] | EC50 (F508delCFTR; [1]) [nM] | EC50 (F508delCFTR; [2]) [nM] | Maximum % activity (with co-corrector) (F508delCFTR; with co-corrector (2 μM)) [%] | Maximum % activity (without co-corrector) (F508delCFTR; without co-corrector) [%]
1 | COc1nccc([C@H]2C[C@@]2(C(=O)NS(=O)(=O)c2cccc3nc(C)ccc23)c2cc(C)ccc2OC)n1 (single isomer, unassigned) [Example 98] | 201 | 21 | 804 | 1440 | – | –
2 | COc1ncc([C@@H]2C[C@]2(C(=O)NS(=O)(=O)c2cccc3nc(C)ccc23)c2cc(C)ccc2OC)cn1 (single isomer, unassigned) [Example 37] | 152 | 42 | 3680 | 7260 | 460 | 113
3 | COc1cccc([C@@H]2C[C@]2(C(=O)NS(=O)(=O)c2cccc3nc(C)ccc23)c2cc(C)ccc2OC)c1 (single isomer, unassigned) [Example 27] | 275 | 15.7 | 429 | 405 | – | 465
4 | COc1cncc([C@H]2C[C@@]2(C(=O)NS(=O)(=O)c2cccc3nc(C)ccc23)c2cc(C)ccc2OC)c1 (single isomer, unassigned) [Example 52] | 283 | 26.6 | 2140 | 3320 | – | 608
5 | COc1ccc(C)cc1[C@@]1(C(=O)NS(=O)(=O)c2cccc3nc(C)ccc23)C[C@H]1c1ccc(C(F)(F)F)cc1 (single isomer, unassigned) [Example 19] | 215 | 9.6 | 588 | 1010 | – | –
6 | COc1ccc(C)cc1[C@]1(C(=O)NS(=O)(=O)c2cccc3nc(C)ccc23)C[C@@H]1c1ccc(C(C)C)nc1OC (single isomer, unassigned) [Example 88] | 275 | 12.6 | 534 | 1180 | – | 910
7 | COc1ccc(C)cc1[C@]1(C(=O)NS(=O)(=O)c2cccc3nc(C)ccc23)C[C@@H]1c1ccccn1 [Example 14, (1S,2S)-1-(2-methoxy-5-methylphenyl)-N-(2-methylquinoline-5-sulfonyl)-2-(pyridin-2-yl)cyclopropane-1-carboxamide] | 165 | 799 | 2800 | 3810 | – | 520
8 | COc1cccc([C@@H]2C[C@]2(C(=O)NS(=O)(=O)c2cccc3nc(C)ccc23)c2cc(C)ccc2OC)c1 (racemic) [Example 15, rac-(1r,2s)-1-(2-methoxy-5-methylphenyl)-2-(3-methoxyphenyl)-N-(2-methylquinoline-5-sulfonyl)cyclopropane-1-carboxamide] | 308 | 0.84 | 698 | 1010 | – | –
9 | COc1ccc(C)cc1[C@]1(C(=O)NS(=O)(=O)c2cccc3nc(C)ccc23)C[C@@H]1c1ccc(C)nc1C [Example 81, (1S,2R)-2-(2,6-dimethylpyridin-3-yl)-1-(2-methoxy-5-methylphenyl)-N-(2-methylquinoline-5-sulfonyl)cyclopropane-1-carboxamide] | 173 | 94.4 | 3980 | 5780 | 876 | 476
10 | COc1cccc([C@H]2C[C@@]2(C(=O)NS(=O)(=O)c2cccc3nc(C)ccc23)c2cc(C)ccc2OC)n1 [Example 43, (1s,2s)-1-(2-methoxy-5-methylphenyl)-2-(6-methoxypyridin-2-yl)-N-(2-methylquinoline-5-sulfonyl)cyclopropane-1-carboxamide] | 272 | 2.9 | 806 | 2420 | – | –
11 | COc1ccc(C)cc1[C@]1(C(=O)NS(=O)(=O)c2cccc3nc(C)ccc23)C[C@@H]1c1ccccc1F (single isomer, unassigned) [Example 25] | 305 | 4.3 | 388 | 1010 | – | –
12 | COc1ncc([C@H]2C[C@@]2(C(=O)NS(=O)(=O)c2cccc3nc(C)ccc23)c2cc(C)ccc2OC)cn1 (single isomer, unassigned) [Example 38] | 202 | 219 | 1810 | 3020 | 995 | 419
13 | COc1ccc(C)cc1[C@]1(C(=O)NS(=O)(=O)c2cccc3nc(C)ccc23)C[C@@H]1c1cccc(C)n1 [Example 96, (1S,2S)-1-(2-methoxy-5-methylphenyl)-2-(6-methylpyridin-2-yl)-N-(2-methylquinoline-5-sulfonyl)cyclopropane-1-carboxamide] | 256 | 7.8 | 990 | 1980 | – | –
14 | COc1ccc(C)cc1[C@]1(C(=O)NS(=O)(=O)c2cccc3nc(C)ccc23)C[C@@H]1c1cnc(OC)c(Cl)c1 [Example 102, (1S,2R)-2-(5-chloro-6-methoxypyridin-3-yl)-1-(2-methoxy-5-methylphenyl)-N-(2-methylquinoline-5-sulfonyl)cyclopropane-1-carboxamide] | 397 | 32.7 | 825 | 2300 | – | –
15 | COc1ccc(C)cc1[C@@]1(C(=O)NS(=O)(=O)c2cccc3nc(C)ccc23)C[C@H]1c1cccc(F)c1 (single isomer, unassigned) [Example 21] | 213 | 2 | 506 | 1090 | – | –
16 | COc1ccc(C)cc1[C@@]1(C(=O)NS(=O)(=O)c2cccc3nc(C)ccc23)C[C@H]1c1ccccc1C(F)(F)F (single isomer, unassigned) [Example 31] | 307 | 6.2 | 163 | 239 | – | 776
17 | COc1ccc([C@H]2C[C@@]2(C(=O)NS(=O)(=O)c2cccc3nc(C)ccc23)c2cc(C)ccc2OC)cn1 [Example 32, (1S,2R)-1-(2-methoxy-5-methylphenyl)-2-(6-methoxypyridin-3-yl)-N-(2-methylquinoline-5-sulfonyl)cyclopropane-1-carboxamide] | 259 | 9.1 | 1440 | 2960 | – | –
18 | COc1ccc(C)cc1[C@@]1(C(=O)NS(=O)(=O)c2cccc3nc(C)ccc23)C[C@H]1c1cncc(F)c1 (racemic) [Example 42, rac-(1r,2s)-2-(5-fluoropyridin-3-yl)-1-(2-methoxy-5-methylphenyl)-N-(2-methylquinoline-5-sulfonyl)cyclopropane-1-carboxamide] | 127 | 182 | 1150 | 1850 | – | 690
19 | COc1cncc([C@@H]2C[C@]2(C(=O)NS(=O)(=O)c2cccc3nc(C)ccc23)c2cc(C)ccc2OC)n1 (single isomer, unassigned) [Example 74] | 222 | 222 | 743 | 1290 | 545 | 188
20 | COc1ccc([C@@H]2C[C@]2(C(=O)NS(=O)(=O)c2cccc3nc(C)ccc23)c2cc(C)ccc2OC)c(OC)n1 (single isomer, unassigned) [Example 93] | 271 | 42.6 | 132 | 268 | – | 491
